This experiment deals with THP-1 (AML) cells. The experiment can be described thus: LSD1 CD11b cellular assay (flow cytometry). In kind it is cell-based. To be noted: Homo sapiens, THP-1, 96 h. (In general: Flow cytometry measures light scatter and fluorescence of single cells or particles in a stream.)
Where [1] appears, read: CD11b expressing cells, 4 days, read-out: THP-1 IC50.

In general, IC50 refers to the midpoint of a concentration-inhibition curve.

Each structure is given as a SMILES string. Read-outs that look alike come from different tables or passages of the source.

Turning to `COc1ccc(-c2c(-c3ccc(C#N)c(F)c3)nc(N(C)C[C@@H]3CCNC3)n(C)c2=O)cc1` (stereo in doubt) [Example 56, 2-fluoro-4-[5-(4-methoxy-phenyl)-1-methyl-2-(methyl-pyrrolidin-3-ylmethyl-amino)-6-oxo-1,6-dihydro-pyrimidin-4-yl]-benzonitrile], under setting [1], the half-inhibitory concentration (IC50) is under 0.1 µM.

Regarding `COc1ccc(-c2c(-c3ccc(C#N)cc3)nc(N3CCC(N)CC3)n(C)c2=O)cc1` [Example 2, 4-[2-(4-amino-piperidin-1-yl)-5-(4-methoxy-phenyl)-1-methyl-6-oxo-1,6-dihydro-pyrimidin-4-yl]-benzonitrile], the IC50 (read-out: THP-1 IC50 (μM)) is under 0.1 µM. Consider `CCc1ccc(-c2c(-c3ccc(C#N)cc3)nc(N3CCC(N)CC3)n(C)c2=O)cn1` [Example 10, 4-[2-(4-amino-piperidin-1-yl)-5-(6-ethyl-pyridin-3-yl)-1-methyl-6-oxo-1,6-dihydro-pyrimidin-4-yl]-benzonitrile], for which the half-maximal inhibitory concentration (IC50) under setting [1] was 0.1 to 1 µM. In the case of `CNC1CCN(c2nc(-c3ccc(C#N)c(F)c3)c(-c3ccc(OC)cc3)c(=O)n2C)CC1` [Example 11, 2-fluoro-4-[5-(4-methoxy-phenyl)-1-methyl-2-(4-methylamino-piperidin-1-yl)-6-oxo-1,6-dihydro-pyrimidin-4-yl]-benzonitrile], under setting [1], the IC50 was under 0.1 µM.

Turning to `CNC1CCN(c2nc(-c3ccc(C#N)c(F)c3)c(-c3ccc(OC)c(F)c3)c(=O)n2C)CC1` [Example 12, 2-fluoro-4-[5-(3-fluoro-4-methoxy-phenyl)-1-methyl-2-(4-methylamino-piperidin-1-yl)-6-oxo-1,6-dihydro-pyrimidin-4-yl]-benzonitrile], under setting [1], the half-inhibitory concentration (IC50) was under 0.1 µM.

`Cn1c(N2CCC(N)CC2)nc(-c2ccc(C#N)c(F)c2)c(C#CC2CCCC2)c1=O` [Example 14, 4-[2-(4-amino-piperidin-1-yl)-5-cyclopentylethynyl-1-methyl-6-oxo-1,6-dihydro-pyrimidin-4-yl]-2-fluoro-benzonitrile]: under setting [1], the half-maximal inhibitory concentration (IC50) is under 0.1 µM. Turning to `COc1ccc(-c2c(-c3ccc(C#N)c(F)c3)nc(N3CCC(N)CC3)n(CC(=O)O)c2=O)cc1` [Example 15, [2-(4-amino-piperidin-1-yl)-4-(4-cyano-3-fluoro-phenyl)-5-(4-methoxy-phenyl)-6-oxo-6H-pyrimidin-1-yl]-acetic acid], the IC50 under setting [1] lay within 1 to 10 µM. On the same count and under the same terms, next, `COc1ccc(-c2c(-c3ccc(C#N)c(F)c3)nc(N3CCC(N)CC3)n(CC(N)=O)c2=O)cc1` [Example 16, 2-[2-(4-amino-piperidin-1-yl)-4-(4-cyano-3-fluoro-phenyl)-5-(4-methoxy-phenyl)-6-oxo-6H-pyrimidin-1-yl]-acetamide]: under 0.1 µM; `Cn1c(N2CCC(N)CC2)nc(-c2ccc(C#N)c(F)c2)c(-c2ccc3occc3c2)c1=O` [Example 18, 4-[2-(4-amino-piperidin-1-yl)-5-benzofuran-5-yl-1-methyl-6-oxo-1,6-dihydro-pyrimidin-4-yl]-2-fluoro-benzonitrile]: under 0.1 µM.

Turning to `Cn1c(N2CCC(N)CC2)nc(-c2ccc(C#N)c(F)c2)c(Cl)c1=O` [Example 20, 4-[2-(4-aminopiperidin-1-yl)-5-chloro-1-methyl-6-oxopyrimidin-4-yl]-2-fluorobenzonitrile], the IC50 under setting [1] was in the range of 0.1 to 1 µM.

For `COc1ccc(-c2c(-c3ccc(C#N)c(F)c3)nc(N3CCC4(CCNC4)CC3)n(C)c2=O)cc1F` [Example 22, 4-[2-(2,8-diaza-spiro[4.5]dec-8-yl)-5-(3-fluoro-4-methoxy-phenyl)-1-methyl-6-oxo-1,6-dihydro-pyrimidin-4-yl]-2-fluoro-benzonitrile], under setting [1], the half-inhibitory concentration (IC50) is under 0.1 µM. The same measure, in the same setting: next, `Cn1c(N2CCC(N)CC2)nc(-c2ccc(C#N)c(F)c2)c(-c2ccc(C(F)(F)F)nc2)c1=O` [Example 23, 4-{2-(4-aminopiperidyl)-1-methyl-6-oxo-5-[6-(trifluoromethyl) (3-pyridyl)]hydropyrimidin-4-yl}-2-fluorobenzenecarbonitrile]: under 0.1 µM; `COc1ccc(-c2c(-c3ccc(C#N)c(F)c3)nc(N3CCC[C@@H](N)C3)n(C)c2=O)cc1F` [Example 25, 4-[2-((3R)-3-aminopiperidyl)-5-(3-fluoro-4-methoxyphenyl)-1-methyl-6-oxohydropyrimidin-4-yl]-2-fluorobenzenecarbonitrile]: under 0.1 µM. On the same count and under the same terms, next, `COc1ncc(-c2c(-c3ccc(C#N)c(F)c3)nc(N3CCC(N)CC3)n(C)c2=O)cc1F` [Example 26, 4-[2-(4-aminopiperidyl)-5-(5-fluoro-6-methoxy(3-5,6-dihydropyridyl))-1-methyl-6-oxohydropyrimidin-4-yl]-2-fluorobenzenecarbonitrile]: under 0.1 µM; `COc1ccc(-c2c(-c3ccc(C#N)c(F)c3)nc(N3CC[C@@H](N)C3)n(C)c2=O)cc1F` [Example 27, 4-[2-((3R)-3-aminopyrrolidinyl)-5-(3-fluoro-4-methoxyphenyl)-1-methyl-6-oxohydropyrimidin-4-yl]-2-fluorobenzenecarbonitrile]: under 0.1 µM; `COc1ccc(-c2c(-c3ccc(C#N)c(F)c3)nc(N3CC[C@H](N)C3)n(C)c2=O)cc1F` [Example 29, 4-[2-((3S)-3-amino-pyrrolidin-1-yl)-5-(3-fluoro-4-methoxy-phenyl)-1-methyl-6-oxo-1,6-dihydro-pyrimidin-4-yl]-2-fluoro-benzonitrile]: 0.1 to 1 µM. For `COc1ccc(-c2c(-c3ccc(C#N)c(F)c3)nc(N3CCC[C@@H](N)C3)n(C)c2=O)cc1` [Example 30, 4-[2-((3R)-3-aminopiperidyl)-5-(4-methoxyphenyl)-1-methyl-6-oxohydro-pyrimidin-4-yl]-2-fluorobenzenecarbonitrile], the IC50 under setting [1] was under 0.1 µM. Turning to `COc1ccc(-c2c(-c3ccc(C#N)c(F)c3)nc(N3CCC[C@H](N)C3)n(C)c2=O)cc1` [Example 31, 4-[2-((3S)-3-amino-piperidin-1-yl)-5-(4-methoxy-phenyl)-1-methyl-6-oxo-1,6-dihydro-pyrimidin-4-yl]-2-fluoro-benzonitrile], the concentration for half-maximal inhibition (IC50) under setting [1] was under 0.1 µM.

For `COc1ccc(-c2c(-c3ccc(C#N)c(F)c3)nc(N3CCC(C)(N)CC3)n(C)c2=O)cc1F` [Example 32, 4-[2-(4-amino-4-methyl-piperidin-1-yl)-5-(3-fluoro-4-methoxy-phenyl)-1-methyl-6-oxo-1,6-dihydro-pyrimidin-4-yl]-2-fluoro-benzonitrile], the half-maximal inhibitory concentration (IC50) under setting [1] was under 0.1 µM.

Take `Cn1c(N2CCC(N)CC2)nc(-c2ccc(C#N)cc2)c(-c2ccc3c(cnn3C)c2)c1=O` [Example 33, 4-[2-(4-aminopiperidyl)-1-methyl-5-(1-methyl(1H-indazol-5-yl))-6-oxohydropyrimidin-4-yl]benzenecarbonitrile]: the IC50 under setting [1] is under 0.1 µM. Same read-out and setting: next, `Cn1cc2cc(-c3c(-c4ccc(C#N)c(F)c4)nc(N4CCC(N)CC4)n(C)c3=O)ccc2n1` [Example 37, 4-[2-(4-aminopiperidyl)-1-methyl-5-(2-methyl(2H-indazol-5-yl))-6-oxohydropyrimidin-4-yl]-2-fruorobenzenecarbonitrile]: under 0.1 µM; `COc1c(F)cc(-c2c(-c3ccc(C#N)cc3)nc(N3CCC(N)CC3)n(C)c2=O)cc1F` [Example 38, 4-[2-(4-aminopiperidyl)-5-(3,5-difluoro-4-methoxyphenyl)-1-methyl-6-oxohydropyrimidin-4-yl]benzenecarbonitrile]: under 0.1 µM; `CNC(=O)c1ccc(-c2c(-c3ccc(C#N)cc3)nc(N3CCC(N)CC3)n(C)c2=O)cc1F` [Example 40, {4-[2-(4-aminopiperidyl)-6-(4-cyanophenyl)-3-methyl-4-oxo(3-hydropyrimidin-5-yl)]-2-fluorophenyl}-N-methylcarboxamide]: 0.1 to 1 µM. In the case of `Cn1c(N2CCC(N)CC2)nc(-c2ccc(C#N)cc2)c(-c2ccc(C(N)=O)c(F)c2)c1=O` [Example 41, 4-[2-(4-aminopiperidyl)-6-(4-cyanophenyl)-3-methyl-4-oxo(3-hydropyrimidin-5-yl)]-2-fluorobenzamide], under setting [1], the IC50 fell in the range of 0.1 to 1 µM.

`Cn1c(N2CCC(N)CC2)nc(-c2ccc(C#N)c(F)c2)c(-c2ccc3c(c2)CNC3=O)c1=O` [Example 42, 4-[2-(4-amino-piperidin-1-yl)-1-methyl-6-oxo-5-(1-oxo-2,3-dihydro-1H-isoindol-5-yl)-1,6-dihydro-pyrimidin-4-yl]-2-fluoro-benzonitrile]: the concentration for half-maximal inhibition (IC50) under setting [1] was 0.1 to 1 µM. With `COc1ccc(-c2c(-c3ccc(C#N)cc3)nc(NC[C@H]3CCNC3)n(C)c2=O)cc1F` [Example 44, 4-{5-(3-fluoro-4-methoxy-phenyl)-1-methyl-6-oxo-2-[(3S)-(pyrrolidin-3-ylmethyl)-amino]-1,6-dihydro-pyrimidin-4-yl}-benzonitrile], under setting [1], the IC50 was 0.1 to 1 µM.

`COc1ccc(-c2c(-c3ccc(C#N)cc3)nc(NC[C@@H]3CCNC3)n(C)c2=O)cc1F` [Example 45, 4-{5-(3-fluoro-4-methoxy-phenyl)-1-methyl-6-oxo-2-[(3R)-(pyrrolidin-3-ylmethyl)-amino]-1,6-dihydro-pyrimidin-4-yl}-benzonitrile]: the half-inhibitory concentration (IC50) under setting [1] was 0.1 to 1 µM.

In the case of `COc1ccc(-c2c(-c3ccc(C#N)c(F)c3)nc(N3CCCNCC3)n(C)c2=O)cc1F` [Example 46, 4-[2-[1,4]diazepan-1-yl-5-(3-fluoro-4-methoxy-phenyl)-1-methyl-6-oxo-1,6-dihydro-pyrimidin-4-yl]-2-fluoro-benzonitrile], under setting [1], the IC50 is under 0.1 µM. On the same count and under the same terms, in the case of `COc1ccc(-c2c(-c3ccc(C#N)c(F)c3)nc(N3CCNCC3)n(C)c2=O)cc1F` [Example 47, 2-fluoro-4-[5-(3-fluoro-4-methoxy-phenyl)-1-methyl-6-oxo-2-piperazin-1-yl-1,6-dihydro-pyrimidin-4-yl]-benzonitrile] it was 0.1 to 1 µM; in that of `COc1ccc(-c2c(-c3ccc(C#N)cc3)nc(NC3CCNCC3)n(C)c2=O)cc1F` [Example 48, 4-[5-(3-fluoro-4-methoxy-phenyl)-1-methyl-6-oxo-2-(piperidin-4-ylamino)-1,6-dihydro-pyrimidin-4-yl]-benzonitrile], 0.1 to 1 µM. Still for that read-out and setting: next, `CN(C)c1ncc(-c2c(-c3ccc(C#N)c(F)c3)nc(N3CCC(N)CC3)n(C)c2=O)cn1` [Example 49, 4-[2-(4-amino-piperidin-1-yl)-2′-dimethylamino-1-methyl-6-oxo-1,6-dihydro-[5,5′]bipyrimidinyl-4-yl]-2-fluoro-benzonitrile]: under 0.1 µM.
